Assay results reported in US10450260B2, “NO- and H2S-releasing compounds” (RESEARCH FOUNDATION OF THE CITY UNIVERSITY OF NEW YORK, priority 2011, dated 2019).
Like-named read-outs stand apart in the source and are kept apart here.

Tests used:
[1] = system: carrageenan-induced paw edema; assay: Carrageenan-induced rat paw edema; format: in vivo; conditions: for paw volume versus vehicle treated rats (FIG. 2A): P<0.05, four rats in each group; for anti-inflammatory effect on paw swelling compared with parent NSAID: equimolar oral doses (Example 12)
Description: Carrageenan (1%, 100 μL, suspended in sterile saline solution, type IV lamda; Sigma-Aldrich) was subcutaneously injected into the plantar surface of the right hind paw in rat following the protocol described by Winter et al., Proceedings of the Society for Experimental Biology and Medicine 1962, 111:544-547. Paw volume was measured using a water displacement plethysmometer (model 520; IITC/Life Sciences Instruments, Woodland Hills, Calif.) before carrageenan injection and thereafter at 1-h intervals for 6 h. The paw volume measured just before carrageenan injection was used as the control volume. Data are expressed as the change in paw volume (milliliters) at each time point.
Carrageenan, type IV lambda (1%, 100 μL suspended in sterile saline solution), from Sigma Chemicals (St. Louis, Mo.) was subcutaneously injected into the plantar surface of the right hind paw in rat following the protocol described by Winter et al., Proceedings of the Society for Experimental Biology and Medicine 1962, 111:544-547. Paw volume was measured using a water displacement plethysmometer (Model 520, IITC/Life Sciences Instruments, Woodland Hills, Calif.) before carrageenan injection and thereafter at 1 hour intervals for 5 hours. The paw volume measured just prior to carrageenan injection was used as the control volume. Data are expressed as the change in paw volume (mL) at each time point.

PGE2 = PGE2 in rat paw exudates; format: in vivo; conditions: for PGE2 levels in the paw exudate versus vehicle (FIG. 2B): P<0.01, four rats in each group
Description: Rats were euthanized by asphyxiation in a CO2 chamber. […] The absorbance at 412 nm was measured after 1 h incubation at room temperature. […] Proteins were determined by Biorad assay.
Proteins were determined by Biorad assay.

TNF-α = assay: Plasma TNF-α enzyme immunoassay; format: in vivo, rat; conditions: for plasma TNF-α (FIG. 3): P<0.01 vs vehicle, P<0.01 vs ASA; for plasma TNFα concentration: rats, equimolar oral doses: ASA 180 (1 mmol/kg), NOSH-ASA 477, naproxen 80, NOSH-naproxen 188, sulindac 200, NOSH-sulindac 467 mg/kg, control 11±0.3
Description: Fresh samples of blood from the animals were taken by cardiac puncture into heparin-containing vials. The determination of plasma TNF-α was carried out by an enzyme immunoassay kit from R&D systems (Minneapolis, Minn.). Briefly, each sample (50 μL) was incubated with antibodies specific for rat TNF-α and washed three times with assay buffer. An enzyme-linked polyclonal antibody specific for rat TNF-α conjugated to horseradish peroxidase was then added to the wells. Following washing of unbound antibody-enzyme reagent, a substrate solution (containing tetramethylbenzidine, TMB, plus hydrogen peroxide) was added to the wells. The enzyme reaction yielded a blue product (oxidized TMB) that turned yellow when the stop solution (dilute hydrochloride acid) was added. The intensity of the color was determined by measuring the OD of the yellow color in a standard ELISA plate reader at 450 nm. Sensitivity of this TNF-α assay was determined by adding two standard deviations to the mean optical density value of 20× zero standard replicates and calculating the corresponding concentration. The kit contains all reagents and standards needed for the TNF-α sensitivity assay. The results are expressed as pg/mL.
This was done by an enzyme immunoassay kit from R&D systems (Minneapolis, Minn.) following the protocol described by the manufacturer. Briefly, fresh blood (50 μL) was incubated with antibodies specific for rat TNF-α and washed three times with assay buffer. An enzyme-linked polyclonal antibody specific for rat TNF-α conjugated to horseradish peroxidase was then added to the wells. Following washing of unbound antibody-enzyme reagent, a substrate solution (containing tetramethylbenzidine, TMB, plus hydrogen peroxide) was added to the wells. The enzyme reaction yielded a blue product (oxidized TMB) that turned yellow when the stop solution (dilute hydrochloride acid) was added. The intensity of this was measured at 450 nm. Sensitivity of this TNF-α assay was determined by adding two standard deviations to the mean optical density value of 20× zero standard replicates and calculating the corresponding concentration.

gastric mucosa = assay: Gastric damage, ulcer index; format: in vivo, rat; conditions: rats, oral gavage, equimolar doses: ASA 180, NOSH-ASA 477, naproxen 80, NOSH-naproxen 188, sulindac 200, NOSH-sulindac 467 mg/kg; 6 h post-administration; vehicle UI=0
Description: The institutional animal care and research committees approved all experimental procedures described herein. Male Wistar rats (4 per group) weighing 180-200 g were obtained from Charles River Laboratories International (Wilmington, Mass.). The rats were fed standard laboratory chow and water. Rats were fasted for 48 h with free access to drinking water. […] Stomachs were then rapidly removed, cut along the greatest curvature, and rinsed with ice-cold distilled water. […] Tissues from stomachs were excised and processed for measurement of Prostaglandin E2 (PGE2), malondialdehyde (MDA) and Superoxide dismutase (SOD) activity.

LPS-induced fever = assay: Anti-pyretic activity, LPS-induced fever; format: in vivo, rat; conditions: 2-4 hours after LPS injection
Description: To induce fever, LPS (50 μg/kg, Sigma, St. Louis, Mo., USA) was administered intraperitoneally to the animals an hour before the administration of test drugs as described previously (Pinto L et al., Pharm Pharmacol Communication 1988: 4:502-505). Rectal temperature was measured by inserting a lubricated thermistor probe (external diameter: 3 mm) 2.8 cm into the rectum of the animal. […] Rectal temperatures were taken every hour for 5 hours.

[2] = system: MCF-7 (ER+) breast cancer cell xenograft; assay: MCF-7 xenograft in athymic nude mice; format: in vivo, mouse
Text: Male athymic nude (NU/NU) mice, age 5 weeks, were purchased from Charles River Laboratories, Inc., (Wilmington, Mass.) and were housed according to institutional and NIH guidelines.
Human colon (SW480), Breast (MCF-7, MDA-MB-231), and pancreas (MIA PaCa2) cancer cells (2×10^6) suspended in Matrigel (BD Biosciences, San Jose, Calif.) 50% v/v were inoculated subcutaneously in the right flanks of each mouse (10 mice per group) using a 1-mL syringe and 22-gauge needles. After 10 days the animals from each implanted cell line were randomly divided into 2 groups (N=5/group) and gavaged daily with either vehicle (1% methylcelloluse) or NOSH-naproxen (100 mg/kg) or NOSH (100 mg/kg), the ADT-OH-butyl nitrate compound that releases H2S and NO, in the case of colon cancer xenografts; or NOSH-aspirin (100 mg/kg body weight) in the breast and pancreatic cancers groups. The tumor size was measured every other day using electronic calipers, the tumor volumes were calculated using the following formula: length×width^2/2. The weights of the mice were also recorded every 3 days. Twenty-seven (27) to thirty (30) days post inoculation, the mice were sacrificed, the tumors collected, weighed, and photographed.

[3] = system: HT-29 human colon cancer cells; assay: MTT cell growth inhibition, HT-29; format: cell-based; conditions: HT-29 cells; for IC50: Homo sapiens

Row | SMILES | paw volume versus vehicle treated rats (FIG. 2A) [1] | PGE2 levels in the paw exudate versus vehicle (FIG. 2B) (PGE2) | plasma TNF-α (FIG. 3) (TNF-α) | plasma TNFα concentration (TNF-α) [pg/mL] | gastric damage score, ulcer index (UI) (gastric mucosa) | reduction of LPS-induced fever compared with parent NSAID (LPS-induced fever) | IC50 ([3]; 48 h, read-out: IC50, 48 h) [µM] | IC50 ([3]; 72 h, read-out: IC50, 72 h) [µM] | anti-inflammatory effect on paw swelling compared with parent NSAID [1] | also measured
1 | O=C(CCCO[N+](=O)[O-])Oc1ccccc1C(=O)Oc1ccc(-c2cc(=S)ss2)cc1 [NOSH-1, 4-(3-thioxo-3H-1,2-dithiol-5-yl)phenyl 2-((4-(nitrooxy)butanoyl)oxy)benzoate] | significant reduction in paw volume at all time points | significant reduction in PGE2 levels | significantly less | 75 ± 1 | 2 | appeared to be better in reducing LPS-induced fever | 0.0197 ± 0.0033 | 0.0077 ± 0.0022 | – | change in paw volume ΔV ([1]; high dose NOSH-1 0.52 mmol/kg, after 1-2 hours): 0.45 mL; change in paw volume ΔV ([1]; high dose NOSH-1 0.52 mmol/kg, over the next 4 hours (to 6 h)): 0.35 mL; change in paw volume ΔV ([1]; low dose NOSH-1 0.21 mmol/kg, after 1 hour): 0.5 mL; change in paw volume ΔV ([1]; low dose NOSH-1 0.21 mmol/kg, by 3 hours): 0.6 mL; change in paw volume ΔV ([1]; low dose NOSH-1 0.21 mmol/kg, over the next 3 hours (to 6 h)): ~0.4 mL; PGE2 levels in paw exudate (PGE2; NOSH-1 0.21 mmol/kg): 42 ± 3 pg/mg; PGE2 levels in paw exudate (PGE2; NOSH-1 0.52 mmol/kg): 21 ± 4 pg/mg; plasma TNF-α concentration (TNF-α; NOSH-1 0.21 mmol/kg): 55 ± 2 pg/mL; plasma TNF-α concentration (TNF-α; NOSH-1 0.52 mmol/kg): 40 ± 3 pg/mL; mean tumor volume ([2]; 100 mg/kg daily gavage, end of study, control 935±93): 48±9 mm^3; reduction of tumor mass ([2]; 100 mg/kg daily, day 27, vs control): 55%; average tumor mass ([2]; 100 mg/kg daily, day 27, control 0.46±0.056): 0.21 ± 0.035 g; mean reduction of tumor volume ([2]; 100 mg/kg daily, vs control): 98%; Potency enhancement (ratio of IC50 values ASA/NOSH-1), 48 h ([3]; 48 h): ~125,000 fold; Potency enhancement (ratio of IC50 values ASA/NOSH-1), 72 h ([3]; 72 h): ~250,000 fold
2 | CC(=O)Oc1ccccc1C(=O)O [ASA, aspirin, reference compound] | significant reduction in paw volume at all time points | significant reduction in PGE2 levels | significant rise | 190 ± 5 | – | – | 2500 | 2000 | – | change in paw volume ΔV ([1]; ASA 0.56 mmol/kg, after 6 hours): ~0.35 mL; change in paw volume ΔV ([1]; ASA 0.56 mmol/kg, at 1 hour): 0.4 mL; change in paw volume ΔV ([1]; ASA 0.56 mmol/kg, over the next 2 hours (after 1 h)): ~0.35 mL; PGE2 levels in paw exudate (PGE2; aspirin 0.21 mmol/kg, control 82±2 pg/mg): 12±3 pg/mg protein; increase of plasma TNF-α concentration over control (TNF-α; ASA 0.56 mmol/kg): about 20 fold; plasma TNF-α concentration (TNF-α; ASA 0.56 mmol/kg, control 10±1): 200 ± 10 pg/mL; increase of plasma TNFα concentration over control (TNF-α; ASA 1 mmol/kg): about 20 fold
3 | CC(C(=O)Oc1ccc(-c2cc(=S)ss2)cc1)c1ccc2cc(OC(=O)CCCO[N+](=O)[O-])ccc2c1 (stereo not drawn) [NOSH-7, 6-(1-oxo-1-(4-(3-thioxo-3H-1,2-dithiol-5-yl)phenoxy)propan-2-yl)naphthalen-2-yl 4-(nitrooxy)butanoate] | – | – | – | 48 ± 2 | 2 | appeared to be better in reducing LPS-induced fever | – | – | even lower inflammatory response compared to naproxen | –
4 | CC1=C(CC(=O)Oc2ccc(OC(=O)CCCO[N+](=O)[O-])c(C(=O)Oc3ccc(-c4cc(=S)ss4)cc3)c2)c2cc(F)ccc2/C1=C/c1ccc([S+](C)[O-])cc1 (stereo not drawn) [NOSH-8, (E)-4-(3-thioxo-3H-1,2-dithiol-5-yl)phenyl 5-(2-(5-fluoro-2-methyl-1-(4-(methylsulfinyl)benzylidene)-1H-inden-3-yl)acetoxy)-2-((4-(nitrooxy)butanoyl)oxy)benzoate] | – | – | – | 50 ± 3 | 10 | – | – | – | the same anti-inflammatory response as sulindac | –
5 | CC1=C(CC(=O)O)c2cc(F)ccc2/C1=C\c1ccc([S+](C)[O-])cc1 (stereo not drawn) [sulindac, reference compound] | – | – | – | 230 ± 5 | 130 | – | – | – | – | –
